Test results as given in patent publication US12527774B2, “Estrogen-related receptor alpha modulators” (LEAD PHARMA HOLDING B.V., priority 2019, dated 2026).

Target: ERRα ligand binding domain (ERRα-LBD) (Homo sapiens (Human), UniProt P11474)
Assay: ERRα AlphaScreen Assay
Format: biochemical
Details: disruption of binding of ERRα-LBD protein to biotin-PGC1α-3 co-activator peptide; for IC50: read-out: mean pIC50 (converted)
From the text: This assay was based on the knowledge that nuclear receptors interact with cofactors in a ligand dependent matter. The sites of interaction have been mapped to LXXLL motifs that are present in the co-activator sequences. Short peptide sequences that contain the LXXLL motif mimic the behavior of full length co-activators.
The ERRα AlphaScreen Assay described here relies on the interaction of the co-activator peptide with purified bacterial-expressed ERRα ligand binding domain (ERRα-LBD); upon ligand binding the ERRα protein can undergo a conformational change resulting in a loss of co-activator binding.
Compounds of the present invention were tested for their ability to disrupt binding of ERRα-LBD protein to co-activator peptide using AlphaScreen® Technology (Perkin Elmer). ERRα-LBD protein was expressed in E. coli as a 6×His Small Ubiquitin-like Modifier (SUMO) fusion. Bacterial expressed 6His-SUMO-ERRα-LBD protein was purified using affinity chromatography. All experiments were performed at room temperature in 384-well white non-binding plates (Greiner) using 50 mM Tris-HCl pH 7.5, 100 mM NaCl, 0,1% Pluronic F-127, 0.05% BSA and 5 mM TCEP as the buffer. Final DMSO concentration was 1% in the assay. Compounds were assayed in triplicate and: incubated with 0.81 nM ERRα-LBD protein and 10 μg/mL streptavidin donor beads and 10 μg/mL Ni-chelate acceptor beads for 1 hour at room temperature; followed by a 2-hour incubation with 15 nM biotin-PGC1α-3 peptide (QRRPCSELLKYLTTNDDPP) corresponding to amino acids 202 to 220.
The AlphaScreen signal was measured using an Envision Xcite plate reader (Perkin Elmer). Data was normalized, and curve fitting analysis was performed in GraphPad Prism 7 using a four-parameter dose-response fit.
As multiple IC50 values were annotated for the same compound-protein pair, a mean pIC50 for each compound was determined.

Sequence of ERRα ligand binding domain (ERRα-LBD) (P11474 193-421): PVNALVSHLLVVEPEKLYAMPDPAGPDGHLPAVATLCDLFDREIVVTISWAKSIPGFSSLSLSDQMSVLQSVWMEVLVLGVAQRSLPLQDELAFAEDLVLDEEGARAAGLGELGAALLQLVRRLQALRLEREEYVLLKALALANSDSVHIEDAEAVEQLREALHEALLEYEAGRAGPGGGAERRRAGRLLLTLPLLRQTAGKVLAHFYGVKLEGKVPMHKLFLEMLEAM

SMILES | IC50 [nM] | mean pIC50
COC(=O)Cc1ccc(COc2ccc(C3CC(=O)Nc4n[nH]cc43)cc2OC)c(C(F)(F)F)c1 (stereo not shown) [Example 148, methyl 2-[4-(2-methoxy-4-{6-oxo-2H,4H,5H,6H,7H-pyrazolo[3,4-b]pyridin-4-yl}phenoxymethyl)-3-(trifluoromethyl)phenyl]acetate] | 100 to 1000 | –
COC(=O)c1cc(C2CC(=O)Nc3n[nH]cc32)ccc1OCc1ccccc1C(F)(F)F (stereo not shown) [Example 65, methyl 5-{6-oxo-2H,4H,5H,6H,7H-pyrazolo[3,4-b]pyridin-4-yl}-2-{[2-(trifluoromethyl)phenyl]methoxy}benzoate] | 10 to 100 | –
COc1cc(C2CC(=O)Nc3n[nH]cc32)ccc1OCc1cccc(C(F)(F)F)c1F (stereo not shown) [Example 28, 4-(4-{[2-fluoro-3-(trifluoromethyl)phenyl]methoxy}-3-methoxyphenyl)-2H,4H,5H,6H,7H-pyrazolo[3,4-b]pyridin-6-one] | 100 to 1000 | –
COc1ccc([N+](=O)[O-])cc1COc1ccc(C2CC(=O)Nc3n[nH]cc32)cc1OC (stereo not shown) [Example 25, 4-{3-methoxy-4-[(2-methoxy-5-nitrophenyl)methoxy]phenyl}-2H,4H,5H,6H,7H-pyrazolo[3,4-b]pyridin-6-one] | 100 to 1000 | –
O=C1CC(c2ccc(OCc3ccccc3Cl)cc2)c2c[nH]nc2N1 (stereo not shown) [Example 60, 4-{4-[(2-chlorophenyl)methoxy]phenyl}-2H,4H,5H,6H,7H-pyrazolo[3,4-b]pyridin-6-one] | 100 to 1000 | –
COc1ccccc1COc1ccc(-c2cc(=O)[nH]c3n[nH]cc23)cc1OC [Example 171, 4-{3-methoxy-4-[(2-methoxyphenyl)methoxy]phenyl}-2H,6H, 7H-pyrazolo[3,4-b]pyridin-6-one] | 10 to 100 | –
COc1cc(C2CC(=O)Nc3n[nH]cc32)ccc1OCc1ccccc1I (stereo not shown) [Example 23, 4-{4-[(2-iodophenyl)methoxy]-3-methoxyphenyl}-2H,4H,5H,6H, 7H-pyrazolo[3,4-b]pyridin-6-one] | – | ≥ 8
COc1cc(C2CC(=O)Nc3c[nH]nc32)ccc1OCc1ccc(C(C)=O)cc1C(F)(F)F (stereo not shown) [Example 94, 7-(4-{[4-acetyl-2-(trifluoromethyl)phenyl]methoxy}-3-methoxyphenyl)-2H,4H,5H,6H, 7H-pyrazolo[4,3-b]pyridin-5-one] | 100 to 1000 | –
COc1cc(C2CC(=O)Nc3n[nH]cc32)ccc1OCc1cccc2ccsc12 (stereo not shown) [Example 45, 4-{4-[(1-benzothiophen-7-yl)methoxy]-3-methoxyphenyl}-2H,4H,5H,6H, 7H-pyrazolo[3,4-b]pyridin-6-one] | 10 to 100 | –
CN(C)c1cc(OCc2ccccc2C(F)(F)F)ccc1C1CC(=O)Nc2n[nH]cc21 (stereo not shown) [Example 162, 4-[2-(dimethylamino)-4-{[2-(trifluoromethyl)phenyl]methoxy}phenyl]-2H,4H,5H,6H, 7H-pyrazolo[3,4-b]pyridin-6-one] | 100 to 1000 | –
COc1cc(C2CC(=O)Nc3n[nH]cc32)ccc1OCc1ccc(C(=O)O)cc1C(F)(F)F (stereo not shown) [Example 120, 4-(2-methoxy-4-{6-oxo-2H,4H,5H,6H, 7H-pyrazolo[3,4-b]pyridin-4-yl}phenoxymethyl)-3-(trifluoromethyl)benzoic acid] | 100 to 1000 | –
COc1cc(C2CC(=O)Nc3n[nH]cc32)ccc1OCc1ccc(C(C)=O)cc1C(F)(F)F (single isomer, unassigned; (+)) [Example 199, (+)-4-(4-{[4-acetyl-2-(trifluoromethyl)phenyl]methoxy}-3-methoxyphenyl)-2H,4H,5H,6H,7H-pyrazolo[3,4-b]pyridin-6-one] | 100 to 1000 | –
COc1cc(-c2cc(=O)[nH]c3n[nH]cc23)ccc1OCc1ccc(N)cc1C(F)(F)F [Example 173, 4-(4-{[4-amino-2-(trifluoromethyl)phenyl]methoxy}-3-methoxyphenyl)-2H,6H,7H-pyrazolo[3,4-b]pyridin-6-one] | – | ≥ 8

Further lines, results first:

IC50 [nM] | mean pIC50 | SMILES
100 to 1000 | – | COc1cc(C2CC(=O)Nc3n[nH]cc32)ccc1COc1ccc(C)cc1C (single isomer, unassigned; (+)) [Example 219, (+)-4-{4-[(2,4-dimethylphenoxy)methyl]-3-methoxyphenyl}-2H,4H,5H,6H,7H-pyrazolo[3,4-b]pyridin-6-one]
100 to 1000 | – | COc1cc(C2CC(=O)Nc3n[nH]cc32)ccc1COc1cc(C(F)F)cc(C(F)(F)F)c1 (stereo not shown) [Example 118, 4-(4-{[3-(difluoromethyl)-5-(trifluoromethyl)phenoxy]methyl}-3-methoxyphenyl)-2H,4H,5H,6H,7H-pyrazolo[3,4-b]pyridin-6-one]
100 to 1000 | – | O=C1CC(c2ccc(OCc3ccccc3C(F)(F)F)c(C(F)(F)F)c2)c2c[nH]nc2N1 (stereo not shown) [Example 76, 4-[3-(trifluoromethyl)-4-{[2-(trifluoromethyl)phenyl]methoxy}phenyl]-2H,4H,5H,6H, 7H-pyrazolo[3,4-b]pyridin-6-one]
100 to 1000 | – | COc1cc(-c2cc(=O)[nH]c3n[nH]cc23)ccc1OCc1ccccc1 [Example 183, 4-[4-(benzyloxy)-3-methoxyphenyl]-2H,6H, 7H-pyrazolo[3,4-b]pyridin-6-one]
10 to 100 | – | COc1ccc(COc2ccc(C3CC(=O)Nc4[nH]nnc43)cc2OC)c(C(F)(F)F)c1 (single isomer, unassigned; (+)) [Example 201, (+)-7-(3-methoxy-4-{[4-methoxy-2-(trifluoromethyl)phenyl]methoxy}phenyl)-3H,4H,5H,6H,7H-[1,2,3]triazolo[4,5-b]pyridin-5-one]
10 to 100 | – | COc1ccc([N+](=O)[O-])cc1COc1ccc(-c2cc(=O)[nH]c3n[nH]cc23)cc1OC [Example 182, 4-{3-methoxy-4-[(2-methoxy-5-nitrophenyl)methoxy]phenyl}-2H,6H,7H-pyrazolo[3,4-b]pyridin-6-one]
100 to 1000 | – | CCCCOC(=O)c1ccccc1COc1ccc(C2CC(=O)Nc3n[nH]cc32)cc1OC (stereo not shown) [Example 126, butyl 2-(2-methoxy-4-{6-oxo-2H,4H,5H,6H,7H-pyrazolo[3,4-b]pyridin-4-yl}phenoxymethyl)benzoate]
10 to 100 | – | O=C1CC(c2ccc(COc3ccccc3C(F)(F)F)c(OC(F)(F)F)c2)c2c[nH]nc2N1 (stereo not shown) [Example 108, 4-[3-(trifluoromethoxy)-4-{[2-(trifluoromethyl)phenoxy]methyl}phenyl]-2H,4H,5H,6H,7H-pyrazolo[3,4-b]pyridin-6-one]
10 to 100 | – | COc1cc(C2CC(=O)Nc3n[nH]cc32)ccc1OCc1ccc(N)cc1C(F)(F)F (single isomer, unassigned; (+)) [Example 203, (+)-4-(4-{[4-amino-2-(trifluoromethyl)phenyl]methoxy}-3-methoxyphenyl)-2H,4H,5H,6H,7H-pyrazolo[3,4-b]pyridin-6-one]
100 to 1000 | – | NC(=O)c1cc(C2CC(=O)Nc3n[nH]cc32)ccc1OCc1ccccc1C(F)(F)F (stereo not shown) [Example 130, 5-{6-oxo-2H,4H,5H,6H, 7H-pyrazolo[3,4-b]pyridin-4-yl}-2-{[2-(trifluoromethyl)phenyl]methoxy}benzamide]
100 to 1000 | – | COc1cc(C2CC(=O)Nc3n[nH]c(C)c32)ccc1OCc1ccccc1C(F)(F)F (stereo not shown) [Example 82, 4-(3-methoxy-4-{[2-(trifluoromethyl)phenyl]methoxy}phenyl)-3-methyl-2H,4H,5H,6H,7H-pyrazolo[3,4-b]pyridin-6-one]
100 to 1000 | – | COc1cc(C2CC(=O)Nc3n[nH]cc32)ccc1OCc1cccc(OC)c1OC (stereo not shown) [Example 39, 4-{4-[(2,3-dimethoxyphenyl)methoxy]-3-methoxyphenyl}-2H,4H,5H,6H,7H-pyrazolo[3,4-b]pyridin-6-one]
